# From ChEMBL document CHEMBL2380197, “Discovery of ML326: The first sub-micromolar, selective M5 PAM” (Bioorg Med Chem Lett, 2013)
# Positions count from the first letter of the chain named.
# What was measured:
# [1] = molecular target: T1, Muscarinic acetylcholine receptor M5 (Homo sapiens) (UniProt P08912); assay: Positive allosteric modulation of human muscarinic M5 receptor relative to acetylcholine
# T1 sequence (whole entry): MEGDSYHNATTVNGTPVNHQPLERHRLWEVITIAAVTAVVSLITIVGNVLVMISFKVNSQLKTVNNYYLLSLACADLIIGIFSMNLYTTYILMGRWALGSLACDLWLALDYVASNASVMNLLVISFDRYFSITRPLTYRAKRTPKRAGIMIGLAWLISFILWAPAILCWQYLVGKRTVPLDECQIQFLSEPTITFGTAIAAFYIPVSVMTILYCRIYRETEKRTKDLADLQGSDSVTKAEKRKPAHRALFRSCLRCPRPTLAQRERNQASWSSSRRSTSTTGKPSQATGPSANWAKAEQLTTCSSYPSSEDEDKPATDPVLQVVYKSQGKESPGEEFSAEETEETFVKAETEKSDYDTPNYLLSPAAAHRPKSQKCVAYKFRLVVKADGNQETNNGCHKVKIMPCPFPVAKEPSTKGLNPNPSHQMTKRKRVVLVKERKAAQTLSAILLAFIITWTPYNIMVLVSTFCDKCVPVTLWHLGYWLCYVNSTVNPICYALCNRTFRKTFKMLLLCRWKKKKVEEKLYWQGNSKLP
# [2] = molecular target: T2, Muscarinic acetylcholine receptor M5 (Homo sapiens, UniProt P08912); assay: Positive allosteric modulation of human muscarinic M5 receptor
# T2 sequence (P08912 whole entry): T1 sequence (whole entry)
# [3] = molecular target: Muscarinic acetylcholine receptor M3 (Homo sapiens, UniProt P20309); assay: Positive allosteric modulation of human muscarinic M3 receptor
# Muscarinic acetylcholine receptor M3 (Homo sapiens, UniProt P20309), sequence (P20309 whole entry): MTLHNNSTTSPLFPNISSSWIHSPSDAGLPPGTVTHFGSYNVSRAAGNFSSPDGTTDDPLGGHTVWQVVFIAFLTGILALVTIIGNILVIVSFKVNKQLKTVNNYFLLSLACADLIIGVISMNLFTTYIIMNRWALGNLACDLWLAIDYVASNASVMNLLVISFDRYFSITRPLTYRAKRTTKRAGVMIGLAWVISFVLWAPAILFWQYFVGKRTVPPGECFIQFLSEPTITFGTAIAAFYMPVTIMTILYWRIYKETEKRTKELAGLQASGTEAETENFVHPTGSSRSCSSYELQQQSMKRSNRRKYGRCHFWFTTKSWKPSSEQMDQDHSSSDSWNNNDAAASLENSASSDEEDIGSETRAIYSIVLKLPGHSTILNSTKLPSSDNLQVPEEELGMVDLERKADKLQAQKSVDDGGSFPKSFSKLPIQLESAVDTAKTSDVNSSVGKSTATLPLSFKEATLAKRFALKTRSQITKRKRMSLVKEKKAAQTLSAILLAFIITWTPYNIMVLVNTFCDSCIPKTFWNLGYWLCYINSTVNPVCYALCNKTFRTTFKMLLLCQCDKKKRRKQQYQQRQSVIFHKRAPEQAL
# [4] = molecular target: T1, Muscarinic acetylcholine receptor M5 (Homo sapiens); assay: Positive allosteric modulation of human muscarinic M5 receptor assessed as fold shift of acetylcholine-induced response at 30 uM
# [5] = molecular target: T3, Muscarinic acetylcholine receptor M2 (Homo sapiens, UniProt P08172); assay: Positive allosteric modulation of human muscarinic M2 receptor
# T3 sequence (P08172 whole entry): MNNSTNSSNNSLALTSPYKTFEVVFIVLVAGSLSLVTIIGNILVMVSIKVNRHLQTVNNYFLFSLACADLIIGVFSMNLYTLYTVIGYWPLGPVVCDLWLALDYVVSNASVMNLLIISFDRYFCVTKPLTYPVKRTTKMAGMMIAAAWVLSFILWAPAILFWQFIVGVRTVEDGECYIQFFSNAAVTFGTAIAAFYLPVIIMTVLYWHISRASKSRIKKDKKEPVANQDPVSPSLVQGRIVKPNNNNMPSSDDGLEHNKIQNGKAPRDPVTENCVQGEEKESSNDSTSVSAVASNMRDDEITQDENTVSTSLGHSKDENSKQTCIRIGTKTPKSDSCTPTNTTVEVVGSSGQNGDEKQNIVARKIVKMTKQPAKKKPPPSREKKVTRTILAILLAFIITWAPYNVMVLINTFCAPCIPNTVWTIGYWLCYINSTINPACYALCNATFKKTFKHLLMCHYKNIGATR
# [6] = molecular target: T4, Muscarinic acetylcholine receptor M4 (Homo sapiens, UniProt P08173); assay: Positive allosteric modulation of human muscarinic M4 receptor
# T4 sequence (P08173 whole entry): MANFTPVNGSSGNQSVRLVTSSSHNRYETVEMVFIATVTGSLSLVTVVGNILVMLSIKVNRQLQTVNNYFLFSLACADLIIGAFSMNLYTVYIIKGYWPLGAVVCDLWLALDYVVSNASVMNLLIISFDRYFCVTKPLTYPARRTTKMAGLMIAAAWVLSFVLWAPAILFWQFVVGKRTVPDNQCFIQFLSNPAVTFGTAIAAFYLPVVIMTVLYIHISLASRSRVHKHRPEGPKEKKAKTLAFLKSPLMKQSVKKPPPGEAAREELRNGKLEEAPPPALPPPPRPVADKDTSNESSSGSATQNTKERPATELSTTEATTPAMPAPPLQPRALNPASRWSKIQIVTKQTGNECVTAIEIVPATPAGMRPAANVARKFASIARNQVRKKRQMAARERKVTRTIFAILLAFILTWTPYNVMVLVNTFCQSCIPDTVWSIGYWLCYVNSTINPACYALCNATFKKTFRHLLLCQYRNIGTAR
# [7] = molecular target: T5, Muscarinic acetylcholine receptor M1 (Homo sapiens, UniProt P11229); assay: Positive allosteric modulation of human muscarinic M1 receptor
# T5 sequence (P11229 whole entry): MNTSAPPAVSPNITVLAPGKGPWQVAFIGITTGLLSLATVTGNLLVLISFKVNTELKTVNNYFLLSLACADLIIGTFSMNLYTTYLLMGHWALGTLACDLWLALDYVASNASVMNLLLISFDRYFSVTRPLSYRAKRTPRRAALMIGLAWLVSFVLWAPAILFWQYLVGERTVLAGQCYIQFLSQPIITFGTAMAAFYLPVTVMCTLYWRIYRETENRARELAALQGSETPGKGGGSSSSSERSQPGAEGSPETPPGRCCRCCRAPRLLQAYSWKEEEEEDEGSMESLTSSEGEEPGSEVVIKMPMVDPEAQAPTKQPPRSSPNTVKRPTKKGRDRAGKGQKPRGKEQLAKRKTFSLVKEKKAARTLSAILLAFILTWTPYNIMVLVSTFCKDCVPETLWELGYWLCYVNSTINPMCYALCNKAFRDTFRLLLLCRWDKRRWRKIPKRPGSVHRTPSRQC
# [8] = molecular target: T1, Muscarinic acetylcholine receptor M5 (Homo sapiens); assay: Positive allosteric modulation of human muscarinic M5 receptor at 3 uM relative to acetylcholine
# [9] = molecular target: T6, Muscarinic acetylcholine receptor M5 (Rattus norvegicus) (UniProt P08911); assay: Positive allosteric modulation of rat muscarinic M5 receptor relative to acetylcholine
# T6 sequence (whole entry): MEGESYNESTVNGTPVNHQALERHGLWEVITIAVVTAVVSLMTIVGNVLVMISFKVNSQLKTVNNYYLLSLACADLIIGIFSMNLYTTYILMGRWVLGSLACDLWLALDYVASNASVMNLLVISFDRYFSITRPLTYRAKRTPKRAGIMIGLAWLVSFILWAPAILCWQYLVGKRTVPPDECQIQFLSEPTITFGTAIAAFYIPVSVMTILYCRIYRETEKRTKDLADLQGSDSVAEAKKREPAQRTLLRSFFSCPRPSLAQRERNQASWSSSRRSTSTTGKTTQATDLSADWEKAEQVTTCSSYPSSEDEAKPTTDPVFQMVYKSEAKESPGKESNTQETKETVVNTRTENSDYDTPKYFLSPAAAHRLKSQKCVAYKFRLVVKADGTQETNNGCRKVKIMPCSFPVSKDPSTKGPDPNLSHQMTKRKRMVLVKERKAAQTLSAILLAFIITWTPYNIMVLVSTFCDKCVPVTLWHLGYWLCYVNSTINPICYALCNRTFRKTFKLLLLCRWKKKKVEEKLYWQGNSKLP
# [10] = molecular target: Muscarinic acetylcholine receptor M3 (Rattus norvegicus, UniProt P08483); assay: Positive allosteric modulation of rat muscarinic M3 receptor
# Muscarinic acetylcholine receptor M3 (Rattus norvegicus, UniProt P08483), sequence (P08483 whole entry): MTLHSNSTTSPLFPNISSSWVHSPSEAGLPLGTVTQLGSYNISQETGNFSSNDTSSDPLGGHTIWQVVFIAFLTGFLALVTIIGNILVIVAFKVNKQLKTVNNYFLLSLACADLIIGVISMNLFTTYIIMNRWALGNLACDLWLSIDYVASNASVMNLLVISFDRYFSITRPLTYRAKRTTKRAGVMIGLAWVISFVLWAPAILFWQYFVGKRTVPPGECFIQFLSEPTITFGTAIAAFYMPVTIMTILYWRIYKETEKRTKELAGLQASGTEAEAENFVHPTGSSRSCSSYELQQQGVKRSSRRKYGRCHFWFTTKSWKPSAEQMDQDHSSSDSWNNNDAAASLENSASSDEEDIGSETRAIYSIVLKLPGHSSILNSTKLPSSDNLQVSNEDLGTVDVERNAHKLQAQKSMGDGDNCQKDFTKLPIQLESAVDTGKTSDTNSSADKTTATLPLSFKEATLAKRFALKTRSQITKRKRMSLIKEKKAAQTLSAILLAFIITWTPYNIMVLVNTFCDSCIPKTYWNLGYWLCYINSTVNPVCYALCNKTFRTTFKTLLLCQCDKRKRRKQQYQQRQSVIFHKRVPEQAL
# [11] = molecular target: T7, Muscarinic acetylcholine receptor M4 (Rattus norvegicus, UniProt P08485); assay: Positive allosteric modulation of rat muscarinic M4 receptor
# T7 sequence (P08485 whole entry): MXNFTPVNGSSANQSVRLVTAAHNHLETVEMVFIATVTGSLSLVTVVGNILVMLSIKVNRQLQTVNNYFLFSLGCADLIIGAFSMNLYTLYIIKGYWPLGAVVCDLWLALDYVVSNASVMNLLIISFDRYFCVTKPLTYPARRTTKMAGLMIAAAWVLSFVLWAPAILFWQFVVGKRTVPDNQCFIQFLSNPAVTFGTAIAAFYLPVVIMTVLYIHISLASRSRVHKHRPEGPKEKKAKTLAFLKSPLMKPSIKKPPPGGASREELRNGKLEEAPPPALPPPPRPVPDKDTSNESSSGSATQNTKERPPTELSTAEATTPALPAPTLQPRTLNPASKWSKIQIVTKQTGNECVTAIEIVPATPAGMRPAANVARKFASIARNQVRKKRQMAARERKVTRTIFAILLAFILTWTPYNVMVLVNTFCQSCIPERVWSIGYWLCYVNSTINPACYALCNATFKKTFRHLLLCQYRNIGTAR
# [12] = molecular target: T8, Muscarinic acetylcholine receptor M2 (Rattus norvegicus, UniProt P10980); assay: Positive allosteric modulation of rat muscarinic M2 receptor
# T8 sequence (P10980 whole entry): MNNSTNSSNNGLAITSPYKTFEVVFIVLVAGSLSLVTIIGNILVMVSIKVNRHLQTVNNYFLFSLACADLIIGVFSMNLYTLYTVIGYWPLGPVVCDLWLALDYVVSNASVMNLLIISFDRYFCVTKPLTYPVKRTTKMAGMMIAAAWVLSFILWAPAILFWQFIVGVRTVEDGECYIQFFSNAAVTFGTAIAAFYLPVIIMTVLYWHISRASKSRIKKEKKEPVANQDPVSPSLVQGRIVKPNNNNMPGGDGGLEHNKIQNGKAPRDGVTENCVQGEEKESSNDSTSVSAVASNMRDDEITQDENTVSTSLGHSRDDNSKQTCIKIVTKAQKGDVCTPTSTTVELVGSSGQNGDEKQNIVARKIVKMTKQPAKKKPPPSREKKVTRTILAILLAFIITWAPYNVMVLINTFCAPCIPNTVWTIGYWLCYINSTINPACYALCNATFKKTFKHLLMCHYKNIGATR
# [13] = molecular target: T9, Muscarinic acetylcholine receptor M1 (Rattus norvegicus, UniProt P08482); assay: Positive allosteric modulation of rat muscarinic M1 receptor
# T9 sequence (P08482 whole entry): T5 sequence (P11229 whole entry) with A5V, T254S, P309S, R320K, A337G, I413V
SMILES,Emax [1],EC50 [2],EC50 [3],fold change (FC) [4],EC50 [5],EC50 [6],EC50 [7],also measured
O=C1C(=O)N(CCOc2ccc(Oc3ccccc3)cc2)c2ccc(OC(F)(F)F)cc21,93%,1.05 µM,,,,,,
Cc1cccc(OCCN2C(=O)C(=O)c3cc(OC(F)(F)F)ccc32)c1,91%,0.53 µM,,,,,,
O=C1C(=O)N(Cc2ccc(Oc3ccccc3)cc2)c2ccc(OC(F)(F)F)cc21,,,> 30 µM,5,> 30 µM,> 30 µM,> 30 µM,
O=C1C(=O)N(CCOc2ccc(Cl)cc2)c2ccc(OC(F)(F)F)cc21,92%,0.45 µM,,,,,,
Cc1cccc2c1N(CCOc1ccccc1)C(=O)C2=O,,,,,,,,Emax [8]: 31%
COc1ccc(CN2C(=O)C(O)(c3ccc(F)nc3)c3cc(OC(F)(F)F)ccc32)cc1 (stereo not given),74%,2.2 µM,,,,,,
Cn1cc(-c2ccc(CN3C(=O)C(=O)c4ccccc43)c(F)c2)cn1,45%,,> 30 µM,,> 30 µM,> 30 µM,,
O=C1C(=O)N(Cc2ccc(Oc3cccc(F)n3)cc2)c2ccc(OC(F)(F)F)cc21,,,> 30 µM,6,> 30 µM,> 30 µM,> 30 µM,
COc1ccc(OCCN2C(=O)C(=O)c3cc(OC(F)(F)F)ccc32)cc1,89%,0.59 µM,,,,,,
COc1ccc(CN2C(=O)C(O)(C[N+](=O)[O-])c3cc(OC(F)(F)F)ccc32)cc1 (stereo not given),75%,1.4 µM,,,,,,
COc1ccc(CN2C(=O)C(=O)c3cc(OC(F)(F)F)ccc32)cc1,,,> 30 µM,14,> 30 µM,> 30 µM,> 30 µM,fold change (FC) [9]: 20
O=C1C(=O)N(CCOc2ccccc2)c2ccc(OC(F)(F)F)cc21,91%,0.41 µM,> 30 µM,20,> 30 µM,> 30 µM,> 30 µM,EC50 [10]: > 30 µM; EC50 [11]: > 30 µM; EC50 [12]: > 30 µM; EC50 [13]: > 30 µM; fold change (FC) [9]: 20
